Laboratory results: US20260256789A1, “METHODS FOR TREATMENT OF CANCER” (Frontier Medicines Corporation, priority 2022, published 2026)

target: T1, KRAS G12C (GMPPNP-loaded) and cRAF Ras-binding domain (Homo sapiens, UniProt P01116, C118S/C51S/C80L/G12C); experiment: Inhibition of KRAS G12C and cRAF binding (AlphaScreen); details: KRAS G12C preloaded with GTP analogue GMPPNP, 2 hours preincubation
T1 construct: truncated version comprising amino acids 1-169
Text: The ability of compounds of Formula (A), Formula (B) and Formula (C), and pharmaceutically acceptable salts and/or isotopologues thereof, to inhibit activity of the GTP-bound form of KRAS G12C can be tested using methods such as the in vitro assay described in Example 179 below. Example 179 describes determining, for various compounds, the half-maximal inhibition (IC50) of KRAS G12C loaded with GTP analogue GMPPNP from binding to cRaf, as the Ras-binding domain (RBD). Example 180 describes determining, for various compounds, the half-maximal inhibition (IC50) of KRAS G12C loaded with GTP analogue GMPPNP from binding to PI3Kα, as the Ras-binding domain (RBD). Example 181 describes testing compounds for the ability to inhibit cell viability in MCF10A G12C/A59G mutant, which abrogates GTPase activity, thus preventing hydrolysis of GTP to GDP.
The AlphaScreen technology was used to determine IC50s for compound inhibition of KRAS G12C (present as the Cys-light (C51S, C80L and C118S), truncated version comprising amino acids 1-169) and cRAF interaction. Compounds were diluted in 100% DMSO and each compound concentration was spotted at 200 nl/well onto low volume, white 384 well plates. The KRAS G12C contained a biotin-AviTag and the cRaf, as Ras-binding domain (amino acids 50-131, RBD), was GST-tagged. KRAS G12C was preloaded with the GTP analogue Guanosine 5′-[β,γ-imido]triphosphate (GMPPNP). The KRAS G12C was diluted in 25 mM Hepes, pH 7.4, 150 mM NaCl, 5 mM MgCl2, 0.01% TritonX-100 and 10 μM GMPPNP and added at 10 ul/well to compound-spotted plates resulting in a DMSO concentration of 2%. Plates were incubated for 2 hours. A mixture of RBD and the AlphaScreen streptavidin donor and glutathione acceptor beads diluted in 25 mM Hepes, pH 7.4, 150 mM NaCl, 5 mM MgCl2, 0.01% TritonX-100 and 2% DMSO was then added at 10 ul/well and incubated for 60-90 minutes before the samples were read for emission at 570 nm after excitation of the donor beads at 680 nm. All incubations were performed at room temperature. The final top compound concentration was 50 μM with 1:3 titrations for 10-point dose response curves. Final assay conditions were 0.5 nM KRAS G12C, 0.75 nM RBD and 5 μg/ml each of AlphaScreen donor and acceptor beads. IC50s were determined using nonlinear regression fit of [inhibitor] vs. response (4 parameters). […]

T1 sequence (P01116 1-169 isoform P01116-2 G12C/C51S/C80L/C118S): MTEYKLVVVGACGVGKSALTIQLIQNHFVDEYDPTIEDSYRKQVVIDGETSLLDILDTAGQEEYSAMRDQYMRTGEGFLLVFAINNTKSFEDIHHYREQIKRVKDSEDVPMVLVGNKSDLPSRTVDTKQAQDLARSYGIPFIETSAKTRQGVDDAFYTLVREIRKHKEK

| IC50 [nM] | Compound |
| --- | --- |
| ≥ 500 | C=CC(=O)N1CC[C@@H](N(C)c2nc(OC[C@@]34CCCN3C[C@H](F)C4)nc3c(F)c(-c4cc(O)c(C)cc4C4CC4)ncc23)C1 [Example 228] |
| 100 to 500 | C=CC(=O)N1CC[C@@H](N(C)c2nc(OC[C@@]34CCCN3C[C@H](F)C4)nc3c(F)c(-c4cccc(Cl)c4C(F)(F)F)ncc23)C1 [Example 255] |
| 10 to 100 | C=CC(=O)N1CC[C@@H](N(C)c2nc(OC[C@@]34CCCN3C[C@H](F)C4)nc3c(F)c(-c4cccc5sc(N)nc45)ncc23)C1 [Example 244] |
| 10 to 100 | C=CC(=O)N1CC[C@@H](N(C)c2nc(OC[C@@]34CCCN3C[C@H](F)C4)nc3c(F)c(-c4cccc(Cl)c4C4CC4)ncc23)C1 [Example 252] |
| ≥ 500 | C=CC(=O)N1CC[C@@H](N(C)c2nc(OC[C@@]34CCCN3C[C@H](F)C4)nc3c(F)c(-c4nccc5cccc(Cl)c45)ncc23)C1 [Example 209] |
| ≥ 500 | C=CC(=O)N1CC[C@@H](N(C)c2nc(OC[C@@]34CCCN3C[C@H](F)C4)nc3c(F)c(-c4nc(N)ccc4OC(F)F)ncc23)C1 [Example 261] |
| ≥ 500 | C=CC(=O)N1CC[C@@H](N(C)c2nc(OC[C@@]34CCCN3C[C@H](F)C4)nc3c(F)c(-c4nc(N)ccc4C)ncc23)C1 [Example 125, 1-((R)-3-((7-(6-amino-3-methylpyridin-2-yl)-8-fluoro-2-(((2R,7aS)-2-fluorotetrahydro-1H-pyrrolizin-7a(5H)-yl)methoxy)pyrido[4,3-d]pyrimidin-4-yl)(methyl)amino)pyrrolidin-1-yl)prop-2-en-1-one] |
| ≥ 500 | C=CC(=O)N1CC[C@@H](N(C)c2nc(OC[C@@]34CCCN3C[C@H](F)C4)nc3c(F)c(-c4cc(OC)cc5nccnc45)ncc23)C1 [Example 230] |
| ≥ 500 | C=CC(=O)N1CC[C@@H](N(C)c2nc(OC[C@@]34CCCN3C[C@H](F)C4)nc3c(F)c(-c4ccc(O)cc4C4CC4)ncc23)C1 [Example 233] |
| ≥ 500 | C=CC(=O)N1CC[C@@H](N(C)c2nc(OC[C@@]34CCCN3C[C@H](F)C4)nc3c(F)c(-c4nccc(C)c4C(F)(F)F)ncc23)C1 [Example 211] |
| 10 to 100 | C=CC(=O)N1CC[C@@H](N(C)c2nc(OC[C@@]34CCCN3C[C@H](F)C4)nc3c(F)c(-c4nc(N)cc(C)c4C(F)(F)F)ncc23)C1 [Example 72, 1-((R)-3-((7-(6-amino-4-methyl-3-(trifluoromethyl)pyridin-2-yl)-8-fluoro-2-(((2R,7aS)-2-fluorotetrahydro-1H-pyrrolizin-7a(5H)-yl)methoxy)pyrido[4,3-d]pyrimidin-4-yl)(methyl)amino)pyrrolidin-1-yl)prop-2-en-1-one] |
| ≥ 500 | C=CC(=O)N1CC[C@@H](N(C)c2nc(OC[C@@]34CCCN3C[C@H](F)C4)nc3c(F)c(-c4ccccc4OC(F)F)ncc23)C1 [Example 182] |
| ≥ 500 | C=CC(=O)N1CC[C@@H](N(C)c2nc(OC[C@@]34CCCN3C[C@H](F)C4)nc3c(F)c(-c4cccc(F)c4C4CC4)ncc23)C1 [Example 220] |
| ≥ 500 | C=CC(=O)N1CC[C@@H](N(C)c2nc(OC[C@@]34CCCN3C[C@H](F)C4)nc3c(F)c(-c4cccc(OC(F)F)c4C4CC4)ncc23)C1 [Example 187] |
| ≥ 500 | C=CC(=O)N1CC[C@@H](N(C)c2nc(OC[C@@]34CCCN3C[C@H](F)C4)nc3c(F)c(-c4c(O)cccc4C4CC4)ncc23)C1 [Example 218] |
| ≥ 500 | C=CC(=O)N1CC[C@@H](N(C)c2nc(OC[C@@]34CCCN3C[C@H](F)C4)nc3c(F)c(-c4cncc(F)c4C4CC4)ncc23)C1 [Example 188] |

The remaining lines, values behind:

| Compound | IC50 [nM] |
| --- | --- |
| CN1CC[C@@H]1/C=C/C(=O)N1CC[C@@H](N(C)c2nc(OC[C@@]34CCCN3C[C@H](F)C4)nc3c(F)c(-c4cccc(Cl)c4C(F)(F)F)ncc23)C1 [Example 242] | 10 to 100 |
| CN(c1nc(OC[C@@]23CCCN2C[C@H](F)C3)nc2c(F)c(-c3nc(N)cc4cccc(Cl)c34)ncc12)[C@@H]1CCN(C(=O)/C=C/CN2CCOCC2)C1 [Example 116] | 100 to 500 |
| CN(C)C/C=C/C(=O)N1CC[C@@H](N(C)c2nc(OC[C@@]34CCCN3C[C@H](F)C4)nc3c(F)c(-c4nc(N)cc5cccc(Cl)c45)ncc23)C1 [Example 61, (E)-1-((R)-3-((7-(3-amino-8-chloroisoquinolin-1-yl)-8-fluoro-2-(((2R,7aS)-2-fluorohexahydro-1H-pyrrolizin-7a-yl)methoxy)pyrido[4,3-d]pyrimidin-4-yl)(methyl)amino)pyrrolidin-1-yl)-4-(dimethylamino)but-2-en-1-one] | 10 to 100 |
| CN(c1nc(OC[C@@]23CCCN2C[C@H](F)C3)nc2c(F)c(-c3nc(N)cc4cccc(F)c34)ncc12)[C@@H]1CCN(C(=O)/C=C/CN2CCOCC2)C1 [Example 167, (E)-1-((R)-3-((7-(3-amino-8-fluoroisoquinolin-1-yl)-8-fluoro-2-(((2R,7aS)-2-fluorotetrahydro-1H-pyrrolizin-7a(5H)-yl)methoxy)pyrido[4,3-d]pyrimidin-4-yl)(methyl)amino)pyrrolidin-1-yl)-4-morpholinobut-2-en-1-one] | ≥ 500 |
| Cc1cc(N)nc(-c2ncc3c(N4CCN(C#N)CC4)nc(OC[C@@]45CCCN4C[C@H](F)C5)nc3c2F)c1C(F)(F)F [Example 49, 4-(7-(6-amino-4-methyl-3-(trifluoromethyl)pyridin-2-yl)-8-fluoro-2-(((2R,7aS)-2-fluorohexahydro-1H-pyrrolizin-7a-yl)methoxy)pyrido[4,3-d]pyrimidin-4-yl)piperazine-1-carbonitrile] | 100 to 500 |
| Cc1cc(N)nc(-c2ncc3c(N(C)CC4CN(C(=O)/C=C/c5nc(C(C)(C)O)no5)C4)nc(OC[C@@]45CCCN4C[C@H](F)C5)nc3c2F)c1C(F)(F)F [Example 97] | 10 to 100 |
| Cc1noc(/C=C/C(=O)N2CC[C@@H](N(C)c3nc(OC[C@@]45CCCN4C[C@H](F)C5)nc4c(F)c(-c5nc(N)cc(C)c5C)ncc34)C2)n1 [Example 52, (E)-1-((R)-3-((7-(6-amino-3,4-dimethylpyridin-2-yl)-8-fluoro-2-(((2R,7aS)-2-fluorotetrahydro-1H-pyrrolizin-7a(5H)-yl)methoxy)pyrido[4,3-d]pyrimidin-4-yl)(methyl)amino)pyrrolidin-1-yl)-3-(3-methyl-1,2,4-oxadiazol-5-yl)prop-2-en-1-one] | 10 to 100 |
| CN(c1nc(OC[C@@]23CCCN2C[C@H](F)C3)nc2c(F)c(-c3cccc(Cl)c3C3CC3)ncc12)[C@@H]1CCN(C(=O)/C=C/CN2C3COCC2C3)C1 [Example 256] | 10 to 100 |
| Cc1nsc(/C=C/C(=O)N2CC[C@@H](N(C)c3nc(OC[C@@]45CCCN4C[C@H](F)C5)nc4c3C[C@H](C)[C@@H](c3nc(N)cc(C)c3C(F)(F)F)C4)C2)n1 [Example 88, (E)-1-((R)-3-(((6S,7S)-7-(6-amino-4-methyl-3-(trifluoromethyl)pyridin-2-yl)-2-(((2R,7aS)-2-fluorotetrahydro-1H-pyrrolizin-7a(5H)-yl)methoxy)-6-methyl-5,6,7,8-tetrahydroquinazolin-4-yl)(methyl)amino)pyrrolidin-1-yl)-3-(3-methyl-1,2,4-thiadiazol-5-yl)prop-2-en-1-one] | ≥ 500 |
| Cc1noc(/C=C/C(=O)N2CC[C@@H](N(C)c3nc(OC[C@@]45CCCN4C[C@H](F)C5)nc4c3C[C@@H](C)[C@H](c3nc(N)cc(C)c3C(F)(F)F)C4)C2)n1 (single isomer, unassigned) [Example 57] | < 10 |
| CN(c1nc(OC[C@@]23CCCN2C[C@H](F)C3)nc2c(F)c(-c3cccc(Cl)c3C3CC3)ncc12)[C@@H]1CCN(C(=O)C#C[C@@]2(C)CCCN2C)C1 [Example 235] | 10 to 100 |
| Cc1nsc(/C=C/C(=O)N2CC[C@@H](N(C)c3nc(OC[C@@]45CCCN4C[C@H](F)C5)nc4c(F)c(-c5nc(N)cc(C)c5C(F)(F)F)ncc34)C2)n1 [Example 164] | 10 to 100 |
| Cc1cc(N)nc(-c2ncc3c(N(C)[C@@H]4CCN(C#N)C4)nc(OC[C@@]45CCCN4C[C@H](F)C5)nc3c2F)c1C(F)(F)F [Example 239] | < 10 |
| CN1CC[C@H]1/C=C/C(=O)N1CC[C@@H](N(C)c2nc(OC[C@@]34CCCN3C[C@H](F)C4)nc3c(F)c(-c4nc(N)cc5cccc(Cl)c45)ncc23)C1 [Example 108] | 10 to 100 |
